Measured values as given in patent US20070254843A1, “Methods for treating bone associated diseases by the use of methionine aminopeptidase-2 inhibitors” (Praecis Pharmaceuticals Incorporated, priority 2006, published 2007).

Experiments:
[1] = tested on: primary human osteoclast (OC) precursors; assay: Osteoclast differentiation assay (TRAP staining); assay type: cell-based
Procedure: Osteoclast differentiation assays. Primary human osteoclast (OC) precursors (Cambrex) were seeded at 10,000 cells/well (50,000 cells/ml) in osteoclast precursor growth medium (Cambrex). The cells were cultured for 7 days in the presence of either M-CSF (33 ng/ml), M-CSF (33 ng/ml) and RANKL (33 ng/ml), or in the presence of both cytokines and different concentrations of the MetAP-2 inhibitor. OC differentiation was determined by staining for the OC marker TRAP, using a leukocyte acid phosphatase kit (Sigma). Briefly, after 7 days in culture, the cells were rinsed once with PBS, fixed with 37% formaldehyde in acetone-citrate buffer for 1 min, and stained for development of red color according to the manufacturer's instructions.
(§1) The instant invention features such an inhibitor. In order to investigate the activity of the MetAP-2 inhibitor on osteoclast (OC) differentiation and bone resorption in vitro, yet another cell type critically associated with R^A pathogenesis in an in vitro osteoclastogenesis model was utilized. Primary human OC precursors were cultured for 7 days in the presence of M-CSF and RANKL, and vehicle or increasing concentrations of the MetAP-2 inhibitor.

PG-PS-induced arthritis [2] = assay: Microfocal computed tomography of hind joints in rat PG-PS arthritis model; assay type: in vivo
Procedure: Microfocal computed tomography. All specimens were scanned on a Scanco Medical AG μCT 40 system. Images were obtained with an isotropic voxel resolution of 20 microns. A matrix size of 1024×1024 with 1000 projections was utilized for all scans. A total of 1836 slices were scanned for each specimen (the number of slices scanned was determined by the length of the scan needed to cover the entire ankle including the distal tibia). The scan time per specimen was approximately 2.6 hours. The images were then volume rendered using a fixed threshold (at two different thresholds: 255 and 140). The total bone volume and BMD were calculated over the same regions of all the specimens. Micro-CT was performed at Scanco USA, Incorporated.
Finally, the activity of the MetAP-2 inhibitor on the structural preservation of hind joints in rats with established disease was investigated.
The ankles including the distal tibia were scanned using a Scanco Medical AG μCT 40 system (threshold: 255), and the total bone volume and BMD were calculated over the same regions of all specimens.

[3] = tested on: primary human OC precursors; assay: Cytotoxicity in OC precursor culture; assay type: cell-based; settings: concentrations up to 100 nM
Procedure: as §1

PG-PS-induced arthritis [4] = assay: Clinical (histopathological) assessment of PG-PS arthritis, joint histology score; assay type: in vivo, rat; settings: for Total arthritis score / Bone Resorption score / Cartilage erosion score / Cell infiltration score / Pannus formation score: PG-PS arthritis; for Bone Resorption score / Cartilage erosion score / Cell infiltration score / Pannus formation score: score 0-4
Procedure: Clinical assessment of PG-PS arthritis. The histopathological evaluation was performed on the left and right hind joints of randomly selected animals from each study group by an independent histopathologist without knowledge of specific interventions. After completion of the study, the left and right hind ankles were removed, fixed in 10% buffered formalin, decalcified in 5% formic acid, paraffin-embedded, sectioned, and H&E stained for histological evaluation. A joint histology scoring system which grades the severity of 4 histopathological processes (cell infiltration, pannus formation, cartilage erosion, bone resorption), was used to quantify hind joint involvement in the PG-PS arthritis model (36). Dependent on the assigned score for each parameter (0=normal, 1=minimal, 2=mild, 3=moderate, 4=marked), the maximum total score per ankle is 16, and 32 per animal.
It was investigated whether the protective activity of the MetAP-2 inhibitor in this animal model of arthritis, which is characterized by aggressive synovitis, extensive pannus formation, cartilage degradation and focal bone erosion, was mediated through regression in the severity of all clinical indices tested, or whether this activity was targeting specific pathogenic processes.
A joint histology scoring system which grades the severity of 4 histopathological processes (cell infiltration, pannus formation, cartilage erosion, bone resorption) was used (O'Byrne (1991) Agents and Actions 134:239-241).

HFLS-R^A = settings: 100 nM; cited from earlier work
HUVEC = settings: in vitro; cited from earlier work
CTX-I = assay: Urinary CTX-I ELISA in rat PG-PS arthritis model; assay type: in vivo; settings: 1, 5 and 10 mg/kg p.o. qod
Procedure: ELISAs for cartilage and bone biochemical turnover markers. The amount of COMP in serum was measured with a competitive enzyme immunoassay (MD Biosciences, Inc) according to the manufacturer's instructions. The detection limit of this ELISA was 0.2 U/L. Helical peptide (amino acids 620 to 633) from the α1 chain of bone-specific human CTX-I was measured either in cell culture supernatants of primary human OC precursors cultured as described above, or in urine with a competitive enzyme immunoassay (Quidel Corporation). The detection limit of this ELISA was 8 μg/L. All CTX-I measurements in urine were corrected for urinary creatinine excretion for each sample to account for potential differences in renal clearance rates among the different study groups. Urinary creatinine was measured with a colorimetric assay (Quidel Corporation).
To assess the activity of the MetAP-2 inhibitor on systemic bone resorption in vivo, the amount of systemic CTX-I in urine was measured and corrected for urinary creatinine excretion after conclusion of the study.

[5] = PG-PS arthritis, 10 mg/kg, threshold 255

CO[C@@H]1[C@H](OC(=O)N[C@@H](C(N)=O)C(C)C)CC[C@]2(CO2)[C@H]1[C@@]1(C)O[C@@H]1CC=C(C)C [MetAP-2 inhibitor, (1-Carbamoyl-2-methyl-propyl)-carbamic acid-(3R,4S,5S,6R)-5-methoxy-4-[(2R,3R)-2-methyl-3-(3-methyl-but-2-enyl)-oxiranyl]-1-oxa-spiro[2,5]oct-6-yl ester]
reversibility of the inhibition of OC differentiation [1]: fully reversible
inhibition of OC differentiation ([1]; concentration ≦0.1 nM): no detectable inhibition
generation of TRAP-positive mononuclear and multinucleated OC ([1]; concentrations at ≦1 nM, 7 days with M-CSF and RANKL): almost completely inhibited
structural integrity of hind joints, three-dimensional micro-CT images (PG-PS-induced arthritis [2]; 10 mg/kg p.o. qod, versus vehicle): protected the structural integrity of the joints and prevented focal bone erosions
BMD (PG-PS-induced arthritis [2]; [5]): 1087 ± 17.44 mg HA/ccm
Bone Volume (Vox-BV) (PG-PS-induced arthritis [2]; [5]): 213.8 ± 5.23
cytotoxicity [3]: did not induce cytotoxicity
total arthritic score versus vehicle (PG-PS-induced arthritis [4]; 1, 5, 10 mg/kg p.o. qod): significantly decreased
Total arthritis score (PG-PS-induced arthritis [4]; 1 mg/kg): 7.00 ± 0.58^B
Bone Resorption score (PG-PS-induced arthritis [4]; 1 mg/kg): 2.05 ± 0.2
Cartilage erosion score (PG-PS-induced arthritis [4]; 1 mg/kg): 1.10 ± 0.12^B
Cell infiltration score (PG-PS-induced arthritis [4]; 1 mg/kg): 1.85 ± 0.15^A
Pannus formation score (PG-PS-induced arthritis [4]; 1 mg/kg): 2.00 ± 0.14^A
Total arthritis score (PG-PS-induced arthritis [4]; 5 mg/kg): 7.60 ± 0.67^B
Bone Resorption score (PG-PS-induced arthritis [4]; 5 mg/kg): 1.80 ± 0.20^B
Cartilage erosion score (PG-PS-induced arthritis [4]; 5 mg/kg): 1.25 ± 0.18^B
Cell infiltration score (PG-PS-induced arthritis [4]; 5 mg/kg): 2.15 ± 0.18^A
Pannus formation score (PG-PS-induced arthritis [4]; 5 mg/kg): 2.40 ± 0.20^A
Total arthritis score (PG-PS-induced arthritis [4]; 10 mg/kg): 5.83 ± 0.71^B
Bone Resorption score (PG-PS-induced arthritis [4]; 10 mg/kg): 2.00 ± 0.16^B
Cartilage erosion score (PG-PS-induced arthritis [4]; 10 mg/kg): 0.72 ± 0.14^B
Cell infiltration score (PG-PS-induced arthritis [4]; 10 mg/kg): 1.38 ± 0.31^A
Pannus formation score (PG-PS-induced arthritis [4]; 10 mg/kg): 1.72 ± 0.20^A
induction of apoptosis in HFLS-RA (HFLS-R^A): did not induce apoptosis
inhibition of proliferation of HUVEC (HUVEC): potently inhibit
systemic urinary CTX-I levels corrected for creatinine, versus vehicle (CTX-I): significantly decreased
